Laboratory results reported in US12024508B2 (priority 2018, dated 2024).

Experiments:
Myxomavirus T1-ANCHOR = experiment: Antiviral activity, RK13 cells with Myxomavirus T1-ANCHOR; type: cell-based; conditions: for Selectivity index: RK13/MyxV T1, CC50/CI50; for IC50: RK-13, 144 h, RK13/MyxV T1, MOI 0.05, fixation at 6 days, read-out: CI50 (the source's name)
[1] = Toxicity (cell number) in MRC5 cells; conditions: human
[2] = test system: Shiga toxin (Stx-1 and/or Stx-2); type: cell-based, E. coli
hCMV-ANCHOR = experiment: Antiviral activity, MRC5 cells with hCMV-ANCHOR; type: cell-based; conditions: for Selectivity index: CC50/CI50; for IC50: Human betaherpesvirus 5, 144 h, MOI 1, fixation at 6 days, read-out: CI50 (the source's name)
[3] = Toxicity (cell number) in Hep2 cells; conditions: human
[4] = Toxicity (cell number) in HeLa cells; conditions: human
VACV-ANCHOR = experiment: microbe, parasite or virus in culture; type: cell-based, Vaccinia virus; conditions: for Selectivity index: HeLa/VacV, CC50/CI50; for IC50: Orthopoxvirus vaccinia, HeLa, 48 h, read-out: CI50
[5] = Toxicity (cell number) in RK13 cells; conditions: rabbit
RSV = experiment: Antiviral activity, Hep2 cells with RSV; type: cell-based; conditions: for Selectivity index: CC50/CI50; for IC50: human respiratory syncytial virus, HEp-2, MOI 0.2, fixation at 72 hours, read-out: CI50 (the source's name)

Structure (SMILES)	Selectivity index (Myxomavirus T1-ANCHOR)	IC50 (Myxomavirus T1-ANCHOR) [nM]	CC50 at 72 h [1] [µM]	IC50 [2] [nM]	Selectivity index (hCMV-ANCHOR)	IC50 (hCMV-ANCHOR) [nM]	CC50 at 72 h [3] [µM]	CC50 at 72 h [4] [µM]	Selectivity index (VACV-ANCHOR)	IC50 (VACV-ANCHOR) [nM]	CC50 at 72 h [5] [µM]	Selectivity index (RSV)	IC50 (RSV) [nM]
Cc1nc(-c2ccc(C3N(C)c4ccc(F)cc4C(=O)N3c3ccccc3N)s2)cs1 (stereo not shown) [Compound 1]	5,181	1.44	21.5	14.2	21,500	< 1	> 50	> 50	47,619	1.05	7.46		
Cc1nc(-c2ccc(C3N(C)c4ccc(F)cc4C(=O)N3c3ccccc3O)s2)cs1 (stereo not shown) [Compound 2]		14.2	21	20	21,000	< 1	37.6	32.3	8,947	3.61		1,880	20
Cc1nc(-c2ccc(C3N(C)c4ccc(F)cc4C(=O)N3c3cccc(O)c3)s2)cs1 (stereo not shown) [Compound 3]				55									
Cc1nc(-c2ccc(C3N(C)c4ccccc4C(=O)N3c3ccccc3N)s2)cs1 (stereo not shown) [Compound 4]				78.6									
Cc1nc(-c2ccc(C3N(C)c4ccc(F)cc4C(=O)N3c3ccccc3S(N)(=O)=O)s2)cs1 (stereo not shown) [Compound 5]				35									
Cc1nc(-c2ccc(C3N(C)c4ccc(F)cc4C(=O)N3c3ccc(O)cc3)s2)cs1 (stereo not shown) [Compound 6]	2	5800	16.7	483	59	281	25.6	20.4	32	628	12.9	12	2200
Cc1nc(-c2ccc(C3N(C)c4ccc(F)cc4C(=O)N3c3cccc(O)c3O)s2)cs1 (stereo not shown) [Compound 7]				41									
Cc1nc(-c2ccc(C3N(C)c4ccc(F)cc4C(=O)N3c3ccccc3)s2)cs1 (stereo not shown) [Retro-2.1]	45	74.5	> 50	100	4,310	11.6	> 50	> 50	1,323	37.8	3.35	309	162
